Laboratory results taken from patent publication US20260365670A1, “EGFR INHIBITORS AND USES THEREOF” (DIZAL (JIANGSU) PHARMACEUTICAL CO., LTD., priority 2022, published 2026).
Read-outs that look alike come from different tables or passages of the source.

Tests used:
[1] = target: T1, EGFR wild type (Homo sapiens, UniProt P00533); experiment: Inhibition of EGFR wild type biochemical enzymatic activity (HTRF); settings: EGFR WT, 1 mM ATP, 1 h, room temperature, read-out: IC50 (nM) @WT
T1 construct: purchased Carna Bio
Outline: (§1)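 Kinase activity is measured by HTRF detection of biotinylated TK substrate (1 μM) phosphorylation at 1 mM ATP. Incubation lasts 1 h at room temperature before an EDTA stop, and IC50 is fitted with a four-parameter logistic model.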

[2] = target: T2, EGFR L858R (Homo sapiens, UniProt P00533, L858R); experiment: Inhibition of EGFR L858R biochemical enzymatic activity (HTRF); settings: 1 mM ATP, 1 h, room temperature, read-out: IC50 (nM) @L858R
T2 construct: purchased Carna Bio
Outline: as §1

[3] = target: T3, EGFR L858R/T790M (Homo sapiens, UniProt P00533, L858R/T790M); experiment: Inhibition of EGFR L858R/T790M biochemical enzymatic activity (HTRF); settings: EGFR L858R-T790M, 1 mM ATP, 1 h, room temperature, read-out: IC50 (nM) @L858R-T790M
T3 construct: purchased Carna Bio
Outline: as §1

[4] = target: T4, EGFR Exon19Del (Homo sapiens, UniProt P00533, DEL746-750); experiment: Inhibition of EGFR Exon19Del biochemical enzymatic activity (HTRF); settings: EGFR Del19, 1 mM ATP, 1 h, room temperature, read-out: IC50 @Del19
T4 construct: purchased Carna Bio
Outline: as §1

[5] = target: T5, EGFR Exon19Del/T790M (Homo sapiens, UniProt P00533, DEL746-750/T790M); experiment: Inhibition of EGFR Exon19Del/T790M biochemical enzymatic activity (HTRF); settings: EGFR Del19-T790M, 1 mM ATP, 1 h, room temperature, read-out: IC50 (nM) @Del19-T790M
T5 construct: purchased Carna Bio
Outline: as §1

[6] = target: T6, EGFR[T790M/C797S/L858R] (Homo sapiens, UniProt P00533, C797S/L858R/T790M); experiment: Inhibition of EGFR[T790M/C797S/L858R] biochemical enzymatic activity (HTRF); settings: EGFR T790M-C797S-L858R, 1 mM ATP, 1 h, room temperature, read-out: IC50 (nM) @T790M- C797S - L858R
T6 construct: purchased Carna Bio
Outline: as §1

[7] = target: T7, EGFR[T790M/C797S/d746-750] (Homo sapiens, UniProt P00533, C797S/DEL746-750/T790M); experiment: Inhibition of EGFR[T790M/C797S/d746-750] biochemical enzymatic activity (HTRF); settings: EGFR T790M-C797S-Del19, 1 mM ATP, 1 h, room temperature, read-out: IC50 (nM) @T790M - C797S - Del19
T7 construct: purchased Carna Bio
Outline: as §1

[8] = target: T8, EGFR (d746-750 C797S) (Homo sapiens, UniProt P00533, C797S/DEL746-750); experiment: Inhibition of EGFR (d746-750 C797S) biochemical enzymatic activity (HTRF); settings: EGFR Del19-C797S, 1 mM ATP, 1 h, room temperature, read-out: IC50 (nM) @Del19-C797S
T8 construct: purchased signalchem
Outline: as §1

[9] = target: T9, EGFR (C797S L858R) (Homo sapiens, UniProt P00533, C797S/L858R); experiment: Inhibition of EGFR (C797S L858R) biochemical enzymatic activity (HTRF); settings: EGFR L858-C797S, 1 mM ATP, 1 h, room temperature, read-out: IC50 (nM) @L858-C797S
T9 construct: purchased signalchem
Outline: as §1

[10] = system: Ba/F3 cells expressing EGFR mutations; experiment: Cell proliferation assay, Ba/F3 cells expressing EGFR mutations (CellTiter-Glo, 72 hours); format: cell-based; settings: CellTiter-Glo
Outline: (§2)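 In RPMI1640 medium (PC-9 with 10% FBS), each cell line was seeded at its own density: Ba/F3 5000 and PC-9 500 per well. A compound series was added the next day, with a time-zero viability plate read in parallel. Percent proliferation was subtracted for G0 and referenced to DMSO, and GI50 was derived by curve fitting.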

[11] = system: PC-9; experiment: Cell proliferation assay, PC-9 cells (CellTiter-Glo, 72 hours); format: cell-based; settings: PC9 cells, CellTiter-Glo, read-out: PC9 GI50
Outline: as §2

[12] = system: A-431; experiment: Cell proliferation GI50, A-431 cells (Table 6); format: cell-based
Experimental: [Worded in the source for another cell line; this cell line is reported under the same test.] Ba/F3 cells expressing EGFR mutations were seeded in 384-well plates at 5000 cells/well in RPMI1640 medium containing […]. PC-9 at 500 cells/well was seeded into 384-well plates in RPMI1640 medium with 10% FBS. After overnight incubation, the assay plates were dosed with compounds at a series of concentrations. Alongside dosing the assay plates, the day 0 plate was processed using CellTiter-Glo® Luminescent Cell Viability Assay (Promega) to measure the number of viable cells (G0). The assay plates were further incubated for 72 hours and the number of viable cells (G3) was measured. The percentage of proliferation was calculated as: […]=100×(G3 value of sample well−G0 value)/(G3 value of DMSO control−G0 value). The concentration of compound producing 50% proliferation inhibition (GI50) was further calculated in best-fit curves using XLFit software. N/A=not available.

[13] = BaF3 cells, EGFR DEL19-C797S, read-out: DEL19-C797S/BaF3 GI50
[14] = BaF3 cells, EGFR DEL19-T790-C797S, read-out: DEL19-T790-C797S/BaF3 GI50
[15] = BaF3 cells, EGFR L858R, read-out: L858R/BaF3 GI50
[16] = BaF3 cells, EGFR L858R-C797S, read-out: L858R-C797S/BaF3 GI50
[17] = BaF3 cells, EGFR L858R-T790-C797S, read-out: L858R-T790-C797S/BaF3 GI50
[18] = BaF3 cells, EGFR L858R-T790M, read-out: L858R-T790M/BaF3 GI50
[19] = EGFR DEL19-T790M, read-out: DEL19-T790M GI50
[20] = Mus musculus, BaF3, 72 h, BaF3 cells, EGFR DEL19-C797S, read-out: DEL19-C797S/BaF3 GI50
[21] = Mus musculus, BaF3, 72 h, BaF3 cells, EGFR DEL19-T790-C797S, read-out: DEL19-T790-C797S/BaF3 GI50
[22] = Mus musculus, BaF3, 72 h, BaF3 cells, EGFR L858R, read-out: L858R/BaF3 GI50
[23] = Mus musculus, BaF3, 72 h, BaF3 cells, EGFR L858R-C797S, read-out: L858R-C797S/BaF3 GI50
[24] = Mus musculus, BaF3, 72 h, BaF3 cells, EGFR L858R-T790-C797S, read-out: L858R-T790-C797S/BaF3 GI50
[25] = Mus musculus, BaF3, 72 h, BaF3 cells, EGFR L858R-T790M, read-out: L858R-T790M/BaF3 GI50
[26] = Mus musculus, BaF3, 72 h, EGFR DEL19-T790M, read-out: DEL19-T790M GI50
[27] = Homo sapiens, A-431, A-431 cells

T9 sequence (P00533 25-1210 C797S/L858R): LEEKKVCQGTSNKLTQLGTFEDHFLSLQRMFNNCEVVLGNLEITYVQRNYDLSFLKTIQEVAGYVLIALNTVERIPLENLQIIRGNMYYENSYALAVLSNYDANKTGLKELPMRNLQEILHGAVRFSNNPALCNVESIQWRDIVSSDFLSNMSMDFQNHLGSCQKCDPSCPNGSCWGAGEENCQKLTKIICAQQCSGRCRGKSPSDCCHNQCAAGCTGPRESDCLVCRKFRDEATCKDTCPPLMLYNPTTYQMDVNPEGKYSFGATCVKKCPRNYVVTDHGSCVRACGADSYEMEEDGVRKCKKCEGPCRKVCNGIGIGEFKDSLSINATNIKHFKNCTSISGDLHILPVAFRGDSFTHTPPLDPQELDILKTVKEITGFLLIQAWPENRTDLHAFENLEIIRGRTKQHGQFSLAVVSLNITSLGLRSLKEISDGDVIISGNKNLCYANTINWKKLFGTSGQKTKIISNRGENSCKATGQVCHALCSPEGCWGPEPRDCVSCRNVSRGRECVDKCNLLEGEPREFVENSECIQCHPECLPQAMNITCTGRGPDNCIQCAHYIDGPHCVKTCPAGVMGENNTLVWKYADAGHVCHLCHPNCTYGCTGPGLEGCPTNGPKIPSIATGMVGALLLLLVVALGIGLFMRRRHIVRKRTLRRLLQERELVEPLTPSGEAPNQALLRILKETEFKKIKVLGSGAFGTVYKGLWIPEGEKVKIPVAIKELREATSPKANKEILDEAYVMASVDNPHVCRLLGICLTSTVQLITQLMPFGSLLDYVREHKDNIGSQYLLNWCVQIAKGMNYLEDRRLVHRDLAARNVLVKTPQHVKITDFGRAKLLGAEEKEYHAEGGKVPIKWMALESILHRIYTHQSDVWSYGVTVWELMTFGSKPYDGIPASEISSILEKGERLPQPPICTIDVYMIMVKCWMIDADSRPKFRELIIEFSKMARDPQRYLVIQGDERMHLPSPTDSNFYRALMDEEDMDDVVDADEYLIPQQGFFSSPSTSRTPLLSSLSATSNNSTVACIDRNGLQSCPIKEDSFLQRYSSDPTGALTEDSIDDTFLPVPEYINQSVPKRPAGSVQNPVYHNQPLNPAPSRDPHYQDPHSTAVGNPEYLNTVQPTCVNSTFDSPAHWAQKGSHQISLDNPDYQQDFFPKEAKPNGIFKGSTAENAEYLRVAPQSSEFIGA
T7 sequence (P00533 with tags, fused parts or gaps DEL746-750/T790M/C797S limits assumed): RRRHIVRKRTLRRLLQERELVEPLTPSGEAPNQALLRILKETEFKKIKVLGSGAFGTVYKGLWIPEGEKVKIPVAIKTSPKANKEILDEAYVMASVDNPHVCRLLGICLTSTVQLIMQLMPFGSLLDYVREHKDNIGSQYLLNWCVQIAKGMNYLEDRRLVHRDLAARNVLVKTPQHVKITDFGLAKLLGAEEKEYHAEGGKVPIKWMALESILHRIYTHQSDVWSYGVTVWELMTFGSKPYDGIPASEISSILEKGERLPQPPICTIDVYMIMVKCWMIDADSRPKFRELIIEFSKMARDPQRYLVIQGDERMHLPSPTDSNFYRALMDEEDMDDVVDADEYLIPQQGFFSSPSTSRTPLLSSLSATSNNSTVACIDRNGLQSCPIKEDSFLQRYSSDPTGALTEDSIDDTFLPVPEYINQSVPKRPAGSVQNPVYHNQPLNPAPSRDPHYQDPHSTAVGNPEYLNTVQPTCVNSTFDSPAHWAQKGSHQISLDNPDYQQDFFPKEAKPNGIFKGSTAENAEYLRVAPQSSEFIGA
T8 sequence (P00533 with tags, fused parts or gaps DEL746-750/C797S limits assumed): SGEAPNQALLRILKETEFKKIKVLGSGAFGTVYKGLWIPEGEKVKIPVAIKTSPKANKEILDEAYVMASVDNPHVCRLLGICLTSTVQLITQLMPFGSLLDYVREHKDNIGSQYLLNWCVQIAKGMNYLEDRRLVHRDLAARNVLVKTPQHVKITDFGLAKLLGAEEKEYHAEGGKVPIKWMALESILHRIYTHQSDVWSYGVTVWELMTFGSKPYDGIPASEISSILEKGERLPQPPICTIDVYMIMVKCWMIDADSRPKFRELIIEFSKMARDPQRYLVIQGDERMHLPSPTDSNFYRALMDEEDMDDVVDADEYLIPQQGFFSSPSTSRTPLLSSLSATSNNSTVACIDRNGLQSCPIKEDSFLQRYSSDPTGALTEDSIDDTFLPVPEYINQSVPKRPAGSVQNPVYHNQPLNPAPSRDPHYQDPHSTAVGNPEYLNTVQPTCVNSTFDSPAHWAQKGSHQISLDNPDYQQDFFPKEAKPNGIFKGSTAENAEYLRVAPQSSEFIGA
T6 sequence (P00533 25-1210 T790M/C797S/L858R): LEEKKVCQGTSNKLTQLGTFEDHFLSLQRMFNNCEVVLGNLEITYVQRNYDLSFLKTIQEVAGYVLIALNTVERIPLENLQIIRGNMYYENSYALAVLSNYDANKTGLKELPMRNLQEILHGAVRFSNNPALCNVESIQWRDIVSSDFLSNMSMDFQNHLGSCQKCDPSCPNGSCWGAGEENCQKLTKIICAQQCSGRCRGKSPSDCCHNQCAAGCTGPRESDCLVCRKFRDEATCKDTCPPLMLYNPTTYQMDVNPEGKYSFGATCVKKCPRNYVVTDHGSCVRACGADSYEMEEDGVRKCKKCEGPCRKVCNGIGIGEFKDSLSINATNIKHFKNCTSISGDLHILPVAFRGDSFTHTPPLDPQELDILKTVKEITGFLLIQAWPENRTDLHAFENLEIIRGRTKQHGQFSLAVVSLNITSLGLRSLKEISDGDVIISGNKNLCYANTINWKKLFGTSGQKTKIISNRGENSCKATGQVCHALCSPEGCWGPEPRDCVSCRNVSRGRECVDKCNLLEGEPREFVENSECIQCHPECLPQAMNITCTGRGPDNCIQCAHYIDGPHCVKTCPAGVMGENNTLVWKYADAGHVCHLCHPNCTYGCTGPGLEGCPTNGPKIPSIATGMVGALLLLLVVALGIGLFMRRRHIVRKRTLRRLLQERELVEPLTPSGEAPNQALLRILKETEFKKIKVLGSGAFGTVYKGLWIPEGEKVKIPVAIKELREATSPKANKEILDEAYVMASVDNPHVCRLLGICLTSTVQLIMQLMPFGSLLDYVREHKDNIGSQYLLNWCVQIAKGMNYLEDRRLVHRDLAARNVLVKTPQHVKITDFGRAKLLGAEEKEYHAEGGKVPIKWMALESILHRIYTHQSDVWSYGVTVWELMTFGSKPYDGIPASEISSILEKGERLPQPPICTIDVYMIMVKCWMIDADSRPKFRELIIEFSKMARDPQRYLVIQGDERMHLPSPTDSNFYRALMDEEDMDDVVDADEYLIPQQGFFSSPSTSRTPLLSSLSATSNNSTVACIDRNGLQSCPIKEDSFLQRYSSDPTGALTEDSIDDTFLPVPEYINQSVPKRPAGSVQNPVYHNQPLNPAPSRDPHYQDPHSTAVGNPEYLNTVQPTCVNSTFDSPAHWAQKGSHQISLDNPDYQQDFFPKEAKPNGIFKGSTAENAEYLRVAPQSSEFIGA
T1 sequence (P00533 25-1210): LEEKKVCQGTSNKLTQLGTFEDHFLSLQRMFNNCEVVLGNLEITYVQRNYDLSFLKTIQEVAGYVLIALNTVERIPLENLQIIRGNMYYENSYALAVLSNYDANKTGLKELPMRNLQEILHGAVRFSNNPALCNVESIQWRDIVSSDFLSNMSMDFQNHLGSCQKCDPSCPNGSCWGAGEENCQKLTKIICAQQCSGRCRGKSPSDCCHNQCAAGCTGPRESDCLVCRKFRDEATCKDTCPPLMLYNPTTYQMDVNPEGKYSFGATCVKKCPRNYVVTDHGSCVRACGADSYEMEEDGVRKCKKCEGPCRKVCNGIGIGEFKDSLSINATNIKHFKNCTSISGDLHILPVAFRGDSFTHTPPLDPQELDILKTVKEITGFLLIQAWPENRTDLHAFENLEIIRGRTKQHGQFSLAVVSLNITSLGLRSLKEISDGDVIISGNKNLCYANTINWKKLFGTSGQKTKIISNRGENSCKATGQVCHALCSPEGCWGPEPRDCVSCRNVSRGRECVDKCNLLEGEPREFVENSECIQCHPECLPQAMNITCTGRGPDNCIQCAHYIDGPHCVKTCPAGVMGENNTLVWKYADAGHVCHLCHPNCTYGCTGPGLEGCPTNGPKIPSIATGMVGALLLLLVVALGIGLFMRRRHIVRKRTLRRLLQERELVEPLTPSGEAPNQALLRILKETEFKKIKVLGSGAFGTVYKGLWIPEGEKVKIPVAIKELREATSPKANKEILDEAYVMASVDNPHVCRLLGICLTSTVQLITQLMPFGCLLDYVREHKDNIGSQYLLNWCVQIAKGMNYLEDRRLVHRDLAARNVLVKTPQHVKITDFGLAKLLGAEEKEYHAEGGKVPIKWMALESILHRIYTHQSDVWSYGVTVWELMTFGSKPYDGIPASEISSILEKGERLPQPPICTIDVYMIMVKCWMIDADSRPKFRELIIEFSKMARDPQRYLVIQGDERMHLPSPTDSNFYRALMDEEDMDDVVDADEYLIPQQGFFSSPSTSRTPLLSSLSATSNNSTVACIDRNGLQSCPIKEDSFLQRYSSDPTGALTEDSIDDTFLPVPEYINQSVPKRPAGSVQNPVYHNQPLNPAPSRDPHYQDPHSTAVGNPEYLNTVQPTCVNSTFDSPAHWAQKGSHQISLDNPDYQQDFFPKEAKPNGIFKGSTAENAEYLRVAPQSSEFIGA

Row | SMILES | IC50 [1] | IC50 [2] | IC50 [3] | IC50 [4] | IC50 [5] | IC50 [6] | IC50 [7] | IC50 [8] | IC50 [9] | GI50 [10, 13] | GI50 [10, 14] | GI50 [10, 15] | GI50 [10, 16] | GI50 [10, 17] | GI50 [10, 18] | GI50 [10, 19] | GI50 [11] | GI50 ([12]; A-431 cells) | GI50 [10, 20] | GI50 [10, 21] | further results
1 | Cn1ncc2c1OCCN1CC3CCC(C3)(C1)n1c(nc3ccc(N4CCC(N5CC(F)C5)C4)cc31)NC(=O)c1cc-2c(=O)n(C)c1 (single isomer, unassigned) [Example A94A, 5-[3-(3-Fluoroazetidin-1-yl)pyrrolidin-1-yl]-15,21-dimethyl-23-oxa-2,9,11,15,20,21,26-heptaazaheptacyclo[24.4.1.1^{1,28}.1^{13,17}.0^{2,10}.0^{3,8}.0^{18,22}]tritriaconta-3,5,7,9,13,17(33),18(22),19-octaene-12,16-dione] | > 5000 nM | 4740 nM | > 5000 nM | 830 nM | > 5000 nM | > 5000 nM | > 5000 nM | 1560 nM | > 5000 nM | 114 nM | 254 nM | 323 nM | 284 nM | 539 nM | 944 nM | 209 nM | 981 nM | 1660 nM | – | – | –
2 | Cn1ncc2c1OCCN1CCCCC(C)(C1)n1c(nc3ccc(N4CCOCC4)cc31)NC(=O)c1cc-2c(=O)n(C)c1 (stereo not drawn) [Example A13, 1,15,21-Trimethyl-5-(morpholin-4-yl)-23-oxa-2,9,11,15,20,21,26heptaazahexacyclo[24.4.1.1^{13,17}.0^{2,10}.0^{3,8}.0^{18,22}]dotriac onta-3,5,7,9,13,17(32),18(22),19-octaene-12,16-dione] | > 5000 nM | > 5000 nM | > 5000 nM | 932 nM | 757 nM | > 5000 nM | 728 nM | 780 nM | > 5000 nM | – | – | – | – | – | – | – | – | – | 148 nM | 192 nM | GI50 [10, 22]: 234 nM; GI50 [10, 23]: 232 nM; GI50 [10, 24]: 280 nM; GI50 [10, 25]: 411 nM; GI50 [10, 26]: 192 nM; GI50 ([11]; Homo sapiens, PC-9, 72 h): 292 nM; GI50 [12, 27]: 357 nM
3 | CC1CCCCOc2c(cnn2C)-c2cc(cn(C)c2=O)C(=O)Nc2nc3ccc(N4CCN(C)CC4)cc3n21 (stereo not drawn) [Example A19, 5,12,26-Trimethyl-16-(4-methylpiperazin-1-yl)-7-oxa-4,5,13,20,22,26-hexaazapentacyclo[22.3.1.0^{2,6}.0^{13,21}.0^{14,19}]octacosa-1(28),2(6),3,14,16,18,20,24-octaene-23,27-dione] | > 5000 nM | 625 nM | 632 nM | 22 nM | 29 nM | 214 nM | 16 nM | 19 nM | 283 nM | – | – | – | – | – | – | – | – | – | 6.6 nM | 113 nM | GI50 [10, 22]: 147 nM; GI50 [10, 23]: 98 nM; GI50 [10, 24]: 246 nM; GI50 [10, 25]: 85 nM; GI50 [10, 26]: 85 nM; GI50 ([11]; Homo sapiens, PC-9, 72 h): 856 nM; GI50 [12, 27]: 1340 nM
4 | Cn1ncc2c1OCCN1CC3CCC(C3)(C1)n1c(nc3ccc(N4CCC(N5CC(F)C5)C4)cc31)NC(=O)c1cc-2c(=O)n(C)c1 (single isomer, unassigned) [Example A94B1, 5-[3-(3-Fluoroazetidin-1-yl)pyrrolidin-1-yl]-15,21-dimethyl-23-oxa-2,9,11,15,20,21,26-heptaazaheptacyclo[24.4.1.1^{1,28}.1^{13,17}.0^{2,10}.0^{3,8}.0^{18,22}]tritriaconta-3,5,7,9,13,17(33),18(22),19-octaene-12,16-dione] | 148 nM | 27 nM | 8.8 nM | 10 nM | 7.1 nM | 5 nM | 5 nM | 3.7 nM | 15 nM | 0.73 nM | 6.5 nM | 2 nM | 6 nM | 3.9 nM | 12 nM | 3 nM | 16 nM | 1110 nM | – | – | –
5 | CN(C)C1CN(c2ccc3nc4n(c3c2)C23CCC(CN(CCOc5c(cnn5C)-c5cc(cn(C)c5=O)C(=O)N4)C2)C3)C1 (single isomer, unassigned) [Example A65B] | 148 nM | 16 nM | 2.4 nM | 0.94 nM | 1.7 nM | 1.8 nM | 1.7 nM | 0.97 nM | 7.4 nM | 0.71 nM | 2.2 nM | 2.7 nM | 3.5 nM | 2.8 nM | 11 nM | 2.4 nM | 5.6 nM | 538 nM | – | – | –
6 | C[C@@H]1CCCOc2c(cnn2C)-c2cc(cn(C)c2=O)C(=O)Nc2nc3ccc(N4CCC(N(C)C)C(F)(F)C4)cc3n2C1 (stereo partly drawn) [Example A51] | 1830 nM | 94 nM | 33 nM | 13 nM | 12 nM | 24 nM | 12 nM | 4.7 nM | 31 nM | – | – | – | – | – | – | – | – | – | 7.6 nM | 35 nM | GI50 [10, 22]: 46 nM; GI50 [10, 23]: 38 nM; GI50 [10, 24]: 36 nM; GI50 [10, 25]: 65 nM; GI50 [10, 26]: 65 nM; GI50 ([11]; Homo sapiens, PC-9, 72 h): 62 nM; GI50 [12, 27]: 1040 nM
